Columns and labels:
Type in all cases: cell-based
MM cell lines = assay: Two-drug combination matrix in MM cell lines, ZIP synergy; details: for ZIP δ-score for synergy with omacetaxine: BET inhibitor with omacetaxine; for synergy of translation inhibitor with pomalidomide: MM.1S and H929 cells
[1] = system: protein translation in MM cell lines and primary MM cells; assay: OP-Puro protein translation assay in vitro; details: omacetaxine 50 nM 2.5 h, bortezomib 6 h, 24 h, 48 h
Description: To examine whether myeloma cells depend on inherently high protein synthesis, the O-Propargyl-puromycin (OP-Puro) assay was used to measure the rate of amino-acid incorporation into translating ribosomes by flow cytometry.
Protein synthesis levels were determined in vitro utilizing the puromycin analog O-propargyl-puromycin (OP-Puro) in the protein synthesis assay kit (Cayman Chemical) according to manufacturer instructions. For in vivo protein synthesis, engrafted NSG mice were injected IP with 500 μg puromycin (Gibco), then euthanized after 1.5 h, marrow was flushed, and cells stained with anti-puromycin antibody (12D10, Alexa-488, Millipore Sigma), followed by flow cytometry.

MM1.S cells = assay: Timecourse of apoptosis and cell death by Annexin V and DAPI flow cytometry
From the text: FIG. 2A depicts the timecourse of induction of apoptosis and cell death by omacetaxine in MM1.S cells as measured by Annexin V and DAPI staining by flow cytometry.
FIG. 10A depicts the timecourse of induction of apoptosis and cell death by pomalidomide in MM1.S cells as measured by annexin V and DAPI staining by flow cytometry.

CCS(=O)(=O)Nc1ccc(Oc2ccc(F)cc2F)c(-c2cn(C)c(=O)c3[nH]ccc23)c1 [ABBV-075]
ZIP δ-score for synergy with pomalidomide (MM cell lines; ABBV-075 with pomalidomide, MM.1S cell line): 6.597
ZIP δ-score for synergy with omacetaxine (MM cell lines; MM.1S cell line): 12.02

Cc1sc2c(c1C)C(c1ccc(Cl)cc1)=N[C@@H](CC(=O)OC(C)(C)C)c1nnc(C)n1-2 [JQ1]
ZIP δ-score for synergy with omacetaxine (MM cell lines; MM.1S cell line): 17.56
ZIP δ-score for synergy with pomalidomide (MM cell lines; JQ1 100 nM with pomalidomide 1.25 μM, U266, 96 h): 21.18

Cc1sc2c(c1C)C(c1ccc(Cl)cc1)=N[C@@H](CC(=O)Nc1ccc(O)cc1)c1nnc(C)n1-2 [OTX015]
ZIP δ-score for synergy with omacetaxine (MM cell lines; MM.1S cell line): 7.64
ZIP δ-score for synergy with pomalidomide (MM cell lines; OTX015 with pomalidomide, MM cell lines): 1.84

COc1ccc(C[C@H]2NC[C@H](O)[C@H]2OC(C)=O)cc1 [anisomycin]
synergy of translation inhibitor with pomalidomide (MM cell lines): synergistic

CC(C)C[C@H](NC(=O)[C@H](Cc1ccccc1)NC(=O)c1cnccn1)B(O)O [bortezomib]
ability to inhibit translation in myeloma cell lines [1]: did not occur
ability to inhibit translation in myeloma cell lines ([1]; listed as Boitezomib): did not change translation levels

C[C@@H]1C[C@@H]([C@H](O)CC2CC(=O)NC(=O)C2)C(=O)[C@@H](C)C1 [cycloheximide]
synergy of translation inhibitor with pomalidomide (MM cell lines): synergistic

C/C(=C\[C@H](C)C(=O)C[C@H](O)CC1CC(=O)NC(=O)C1)[C@@H]1OC(=O)/C=C/CC/C=C/C=C\[C@@H]1C [lactimidomycin]
synergy of translation inhibitor with pomalidomide (MM cell lines): synergistic

Nc1cccc2c1C(=O)N(C1CCC(=O)NC1=O)C2=O (stereo not shown) [pomalidomide]
time at which cell death began (MM1.S cells): 24 h
time at which induction of apoptosis started (MM1.S cells): 24 h

From patent publication US20230028293A1, “MULTIPLE MYELOMA COMBINATION THERAPIES BASED ON PROTEIN TRANSLATION INHIBITORS AND IMMUNOMODULATORS” (The Regents of the University of Colorado, a body corporate, priority 2019, published 2023)
